Laboratory results taken from article PMC4792735 (Clinical pharmacokinetics, 2016).
Several values for one entry are separate records, joined by “and”; a condition that tells them apart may be missing. Equal entries are not always repeated. Where two headings read alike, the source gives them in different places.

Assays:
clinical = conditions: human, po, 850 mg
[1] = metformin alone; OGTT 75 g 2 hours after dosing; p>0.1 vs pre-metformin
[2] = metformin 850 mg oral alone
human MATE1 = target: T1, human MATE1 (Homo sapiens, UniProt Q96FL8); assay: Inhibition of [14C]-metformin uptake in HEK-MATE1 cells; assay type: cell-based; conditions: for inhibition at 10 x Cmax,u: human, probe [14C]-metformin 10 µM
T1 sequence (Q96FL8 1-570): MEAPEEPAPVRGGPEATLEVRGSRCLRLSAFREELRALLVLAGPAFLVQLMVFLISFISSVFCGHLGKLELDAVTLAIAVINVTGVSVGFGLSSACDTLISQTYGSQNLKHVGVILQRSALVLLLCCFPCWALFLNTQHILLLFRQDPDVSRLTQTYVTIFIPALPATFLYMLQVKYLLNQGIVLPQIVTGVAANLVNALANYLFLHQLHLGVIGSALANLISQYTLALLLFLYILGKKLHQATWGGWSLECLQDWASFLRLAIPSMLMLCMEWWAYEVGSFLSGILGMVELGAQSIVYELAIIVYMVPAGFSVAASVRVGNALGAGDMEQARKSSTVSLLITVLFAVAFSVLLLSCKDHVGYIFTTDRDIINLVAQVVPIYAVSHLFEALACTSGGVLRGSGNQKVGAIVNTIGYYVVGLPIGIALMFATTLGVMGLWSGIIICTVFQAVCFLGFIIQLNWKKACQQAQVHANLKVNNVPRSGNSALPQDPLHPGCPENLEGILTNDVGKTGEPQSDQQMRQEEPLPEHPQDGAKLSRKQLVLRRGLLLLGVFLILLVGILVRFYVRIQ

human MATE2K [3] = target: T2, human MATE2K (Homo sapiens, UniProt Q86VL8); assay: in vitro; conditions: probe [14C]-metformin 10 µM
T2 sequence (Q86VL8 1-566 isoform Q86VL8-3): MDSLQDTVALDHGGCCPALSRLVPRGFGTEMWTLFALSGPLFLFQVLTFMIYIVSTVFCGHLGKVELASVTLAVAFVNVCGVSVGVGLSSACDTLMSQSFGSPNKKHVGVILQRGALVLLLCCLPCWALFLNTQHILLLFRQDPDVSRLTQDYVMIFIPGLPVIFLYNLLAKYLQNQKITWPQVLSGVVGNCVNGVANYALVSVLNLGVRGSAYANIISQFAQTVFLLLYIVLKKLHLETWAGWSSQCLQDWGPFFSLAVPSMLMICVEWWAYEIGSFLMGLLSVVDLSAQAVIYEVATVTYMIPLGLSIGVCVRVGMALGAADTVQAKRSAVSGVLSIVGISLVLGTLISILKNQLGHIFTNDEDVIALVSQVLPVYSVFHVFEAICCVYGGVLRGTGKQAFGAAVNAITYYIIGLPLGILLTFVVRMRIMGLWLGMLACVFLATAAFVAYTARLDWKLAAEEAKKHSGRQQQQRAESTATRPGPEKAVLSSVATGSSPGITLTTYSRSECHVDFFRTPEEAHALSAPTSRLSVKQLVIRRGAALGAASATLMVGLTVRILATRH

human MATE2K [4] = target: T2, human MATE2K; assay: cell-based; conditions: IC50, [14C]-metformin 10 μM uptake, HEK-MATE2K
human OCT2 = target: T3, human OCT2 (Homo sapiens, UniProt O15244); assay: Inhibition of [14C]-metformin uptake in HEK-OCT2 cells; assay type: cell-based; conditions: for inhibition at 10 x Cmax,u: human, HEK293-Flp-In cells stably expressing human OCT2 (HEK-OCT2), probe [14C]-metformin 10 µM
T3 sequence (O15244 1-555): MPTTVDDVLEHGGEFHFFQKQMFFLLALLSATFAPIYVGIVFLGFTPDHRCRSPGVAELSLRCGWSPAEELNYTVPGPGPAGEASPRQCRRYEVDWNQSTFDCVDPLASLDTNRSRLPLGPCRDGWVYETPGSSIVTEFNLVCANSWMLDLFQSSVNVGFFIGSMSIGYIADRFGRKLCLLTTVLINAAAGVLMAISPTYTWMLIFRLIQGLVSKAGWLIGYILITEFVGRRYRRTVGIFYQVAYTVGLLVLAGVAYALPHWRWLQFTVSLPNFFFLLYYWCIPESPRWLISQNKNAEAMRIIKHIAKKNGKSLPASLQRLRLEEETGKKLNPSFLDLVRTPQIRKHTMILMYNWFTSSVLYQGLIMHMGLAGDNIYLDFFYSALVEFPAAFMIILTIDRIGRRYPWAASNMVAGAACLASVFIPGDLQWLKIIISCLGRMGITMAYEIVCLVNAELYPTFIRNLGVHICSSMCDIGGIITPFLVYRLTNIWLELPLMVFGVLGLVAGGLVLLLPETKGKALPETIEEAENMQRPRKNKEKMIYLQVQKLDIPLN

human OCT1 [5] = target: T4, human OCT1 (Homo sapiens, UniProt O15245); assay: cell-based
T4 sequence (O15245 1-554): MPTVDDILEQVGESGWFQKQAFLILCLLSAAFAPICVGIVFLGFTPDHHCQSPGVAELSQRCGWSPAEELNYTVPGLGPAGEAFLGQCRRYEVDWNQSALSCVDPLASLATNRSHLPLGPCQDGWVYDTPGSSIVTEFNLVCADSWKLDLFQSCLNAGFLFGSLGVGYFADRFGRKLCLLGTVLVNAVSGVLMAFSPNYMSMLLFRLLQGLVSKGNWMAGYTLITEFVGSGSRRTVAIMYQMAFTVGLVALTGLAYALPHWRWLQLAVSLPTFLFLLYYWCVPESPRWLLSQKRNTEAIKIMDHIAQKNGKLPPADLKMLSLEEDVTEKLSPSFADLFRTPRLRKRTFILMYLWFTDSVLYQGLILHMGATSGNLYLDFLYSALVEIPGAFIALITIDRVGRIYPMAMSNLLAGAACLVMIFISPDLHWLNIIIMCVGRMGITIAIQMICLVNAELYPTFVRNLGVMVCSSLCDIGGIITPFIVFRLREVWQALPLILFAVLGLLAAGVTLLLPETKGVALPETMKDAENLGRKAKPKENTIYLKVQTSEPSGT

human OCT3 = target: T5, human OCT3 (Homo sapiens, UniProt O75751); assay: Inhibition of [14C]-metformin uptake in HEK-OCT3 cells; assay type: cell-based; conditions: for metformin uptake (remaining): OCT3-mediated, inhibitor at 10x Cmax,u
T5 sequence (O75751 1-556): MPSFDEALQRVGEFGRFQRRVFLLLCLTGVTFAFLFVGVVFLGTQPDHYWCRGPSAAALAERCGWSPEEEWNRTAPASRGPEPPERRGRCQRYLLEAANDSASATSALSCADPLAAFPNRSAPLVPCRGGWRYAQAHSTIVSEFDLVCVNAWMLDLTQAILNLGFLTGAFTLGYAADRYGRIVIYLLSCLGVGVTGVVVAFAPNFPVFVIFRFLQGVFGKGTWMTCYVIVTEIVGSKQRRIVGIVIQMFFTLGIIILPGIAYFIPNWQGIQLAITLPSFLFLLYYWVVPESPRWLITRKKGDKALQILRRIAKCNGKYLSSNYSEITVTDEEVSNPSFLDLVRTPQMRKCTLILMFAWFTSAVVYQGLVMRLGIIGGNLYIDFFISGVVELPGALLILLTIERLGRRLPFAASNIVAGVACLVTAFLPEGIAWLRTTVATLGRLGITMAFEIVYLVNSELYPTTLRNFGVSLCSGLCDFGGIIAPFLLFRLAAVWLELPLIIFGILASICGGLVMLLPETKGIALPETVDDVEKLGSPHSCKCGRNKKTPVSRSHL

human PMAT = target: T6, human PMAT (Homo sapiens, UniProt Q7RTT9); assay: Inhibition of [14C]-metformin uptake in MDCK-PMAT cells; assay type: cell-based
T6 sequence (Q7RTT9 1-530): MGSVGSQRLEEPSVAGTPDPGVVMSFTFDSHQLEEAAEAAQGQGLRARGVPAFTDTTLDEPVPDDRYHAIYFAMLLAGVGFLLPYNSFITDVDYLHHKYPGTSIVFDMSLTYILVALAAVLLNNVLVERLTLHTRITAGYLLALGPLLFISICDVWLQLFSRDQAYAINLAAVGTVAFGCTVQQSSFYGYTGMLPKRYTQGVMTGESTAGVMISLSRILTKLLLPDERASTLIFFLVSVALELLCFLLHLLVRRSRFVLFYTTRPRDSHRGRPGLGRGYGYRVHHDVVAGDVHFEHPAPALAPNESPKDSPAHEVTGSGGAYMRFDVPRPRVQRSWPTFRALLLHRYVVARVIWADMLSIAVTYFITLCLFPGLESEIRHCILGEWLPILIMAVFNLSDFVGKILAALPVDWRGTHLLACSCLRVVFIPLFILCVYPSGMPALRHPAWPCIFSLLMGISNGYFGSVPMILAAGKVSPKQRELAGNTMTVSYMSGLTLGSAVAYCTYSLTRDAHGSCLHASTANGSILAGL

human OCT1 [6] = target: T4, human OCT1; conditions: OCT1-mediated, inhibitor at 10x Cmax,u
[7] = assay type: in vivo, human
[8] = human plasma; cited from earlier work

CN(C)C(=N)N=C(N)N [Metformin, metformin]
CL renal (clinical; plasma and urine): 736 ± 204 mL/min
AUC(0-inf) (clinical; plasma): 11400 ± 3300 ng·h/mL
AUC(0-t) (clinical; plasma): 11000 ± 3100 ng·h/mL
Cmax (clinical; plasma): 1810 ± 600 ng/mL
Tmax (clinical; plasma): 2.46 ± 0.66 h
glucose AUC after OGTT [1]: 3100 ± 121 mg·h/L
CL/F [2]: 1360 ± 440 mL/min
V/F [2]: 577 ± 179 L
Amount in urine0–24 ([2]; 11 subjects): 437 ± 86 mg

Nc1nc(NC2CC2)c2ncn([C@H]3C=C[C@@H](CO)C3)c2n1 [abacavir]
inhibition at 10 x Cmax,u (human MATE1): ≥ 50%

CN/C(=N/CCSCc1nc[nH]c1C)NC#N [cimetidine]
inhibition at 10 x Cmax,u (human MATE2K [3]): ≥ 50%
inhibition at 10 x Cmax,u (human MATE1): ≥ 50%

CC(C)/N=c1\cc2n(-c3ccc(Cl)cc3)c3ccccc3nc-2cc1Nc1ccc(Cl)cc1 [clofazimine]
inhibition at 10 x Cmax,u (human MATE1): ≥ 50%

CC(=O)OCC(CCn1cnc2cnc(N)nc21)COC(C)=O [famciclovir]
inhibition at 10 x Cmax,u (human MATE2K [3]): ≥ 50%

COc1c(N2C[C@@H]3CCCN[C@@H]3C2)c(F)cc2c(=O)c(C(=O)O)cn(C3CC3)c12 [moxifloxacin]
IC50 (human MATE2K [4]): 1.19 µM
IC50 (human OCT2): > 151 µM
IC50 (human OCT1 [5]): 47 µM
inhibition at 10 x Cmax,u (human MATE2K [3]): ≥ 50%
IC50 (human MATE1): 5.12 µM
inhibition at 10 x Cmax,u (human MATE1): ≥ 50%
IC50 (human OCT3): > 151 µM
IC50 (human PMAT): > 151 µM

C=CCN1CC[C@]23c4c5ccc(O)c4O[C@H]2C(=O)CC[C@@]3(O)[C@H]1C5 [naloxone]
inhibition at 10 x Cmax,u (human OCT2): ≥ 50%

CNC(=C[N+](=O)[O-])NCCSCc1csc(CN(C)C)n1 [nizatidine]
metformin uptake (remaining) (human OCT1 [6]): > 50%
IC50 (human MATE2K [4]): 7.8 µM and 7.81 µM
IC50 (human OCT2): > 115 µM
IC50 (human OCT1 [5]): > 115 µM
inhibition at 10 x Cmax,u (human MATE2K [3]): ≥ 50%
half-life ([7]; human, plasma, oral): ~3 h
Cmax ([7]; human, plasma, po, 600 mg): 4200 ng/mL and 12.7 µM
calculated Cmax,u ([7]; nizatidine 600 mg oral, calculated with 35% protein binding): 2.7 ± 0.2 μg/mL and 8.2 μM
IC50 (human MATE1): 52.7 µM
protein binding [8]: 35%
IC50 (human OCT3): 41.1 µM
metformin uptake (remaining) (human OCT3): > 50%
IC50 (human PMAT): > 115 µM

CCn1cc(C(=O)O)c(=O)c2cc(F)c(N3CCNCC3)cc21 [norfloxacin]
metformin uptake (remaining) (human OCT1 [6]): > 50%
IC50 (human MATE2K [4]): 4.74 µM
IC50 (human OCT2): > 160 µM
IC50 (human OCT1 [5]): > 160 µM
inhibition at 10 x Cmax,u (human MATE2K [3]): ≥ 50%
IC50 (human MATE1): 19.9 µM
inhibition at 10 x Cmax,u (human MATE1): ≥ 50%
IC50 (human OCT3): > 160 µM
metformin uptake (remaining) (human OCT3): > 50%
IC50 (human PMAT): > 160 µM

Cc1nccn1CC1CCc2c(c3ccccc3n2C)C1=O (stereo not drawn) [ondansetron]
metformin uptake (remaining) (human OCT1 [6]): > 50%
IC50 (human OCT1 [5]): > 1.32 µM
inhibition at 10 x Cmax,u (human MATE2K [3]): ≥ 50%
inhibition at 10 x Cmax,u (human MATE1): ≥ 50%
IC50 (human OCT3): > 1.32 µM
metformin uptake (remaining) (human OCT3): > 50%
IC50 (human PMAT): > 1.32 µM

CCN(CC)CCNC(=O)c1ccc(N)cc1 [procainamide]
inhibition at 10 x Cmax,u (human OCT2): ≥ 50%
inhibition at 10 x Cmax,u (human MATE2K [3]): ≥ 50%

C=C[C@H]1C[N@@]2CC[C@H]1C[C@H]2[C@H](O)c1ccnc2ccc(OC)cc12 [quinine]
inhibition at 10 x Cmax,u (human OCT2): ≥ 50%
inhibition at 10 x Cmax,u (human MATE2K [3]): ≥ 50%
inhibition at 10 x Cmax,u (human MATE1): ≥ 50%

CNC(=C[N+](=O)[O-])NCCSCc1ccc(CN(C)C)o1 [ranitidine]
metformin uptake (remaining) (human OCT1 [6]): > 50%
IC50 (human MATE2K [4]): 4.63 µM
IC50 (human OCT2): 15.7 µM
IC50 (human OCT1 [5]): 26.8 µM
inhibition at 10 x Cmax,u (human MATE2K [3]): ≥ 50%
inhibition at 10 x Cmax,u (human MATE1): ≥ 50%
IC50 (human OCT3): 93.5 µM
metformin uptake (remaining) (human OCT3): > 50%
IC50 (human PMAT): > 214 µM

COc1cc(Cc2cnc(N)nc2N)cc(OC)c1OC [trimethoprim]
inhibition at 10 x Cmax,u (human MATE2K [3]): ≥ 50%
inhibition at 10 x Cmax,u (human MATE1): ≥ 50%
